Reference: ChEMBL document CHEMBL1127465, “Rational design, synthesis, and crystallographic analysis of a hydroxyethylene-based HIV-1 protease inhibitor containing a heterocyclic P1'--P2' amide bond isostere” (J Med Chem, 1994)

The molecules below were run against Human immunodeficiency virus type 1 protease (Human immunodeficiency virus 1, UniProt Q72874) (assay: Apparent inhibition constant against recombinant HIV-1 protease).

Structure (SMILES)	Ki [nM]
CC(C)(C)OC(=O)N[C@@H](Cc1ccccc1)[C@@H](O)C[C@@H](Cc1ccccc1)c1nc(C=O)c[nH]1	3500
CC(=O)c1c[nH]c([C@H](Cc2ccccc2)C[C@H](O)[C@H](Cc2ccccc2)NC(=O)OC(C)(C)C)n1	370
CC(C)(C)OC(=O)N[C@@H](Cc1ccccc1)C(=O)C(O)CN[C@@H](Cc1ccccc1)C(=O)NCC(N)=O (stereo not given in full)	120
CCCC(=O)c1c[nH]c([C@H](Cc2ccccc2)C[C@H](O)[C@H](Cc2ccccc2)NC(=O)OC(C)(C)C)n1	150
CC(C)[C@@H](NC(=O)[C@@H](Cc1ccccc1)NCC(O)C(=O)[C@H](Cc1ccccc1)NC(=O)[C@H](C)NC(=O)OCc1ccccc1)C(=O)O (stereo not given in full)	0.7
CC(C)C(=O)c1cnc([C@H](Cc2ccccc2)C[C@H](O)[C@H](Cc2ccccc2)NC(=O)OC(C)(C)C)[nH]1	83
CCC(=O)c1cnc([C@H](Cc2ccccc2)C[C@H](O)[C@H](Cc2ccccc2)NC(=O)OC(C)(C)C)[nH]1	92
C=CC(C)(C)C(=O)c1cnc([C@H](Cc2ccccc2)C[C@H](O)[C@H](Cc2ccccc2)NC(=O)OC(C)(C)C)[nH]1	270
CC(O)c1cnc([C@H](Cc2ccccc2)C[C@H](O)[C@H](Cc2ccccc2)NC(=O)OC(C)(C)C)[nH]1 (stereo not given in full)	13300
CC(C)C(O)c1cnc([C@H](Cc2ccccc2)C[C@H](O)[C@H](Cc2ccccc2)NC(=O)OC(C)(C)C)[nH]1 (stereo not given in full)	2700
